From patent publication US20250304567A1, “PYRROLIDIONE DERIVATIVES AS INHIBITORS OF NF KAPPA B INDUCING KINASE” (priority 2022, published 2025) come the findings set out here.

Read-outs that look alike come from different tables or passages of the source.

The target of assay [1] is Recombinant Human NF-kappaB-Inducing Kinase (NIK/MAP3K14) (Homo sapiens, UniProt Q99558). Put plainly: Inhibition of auto-phosphorylation of recombinant human NIK/MAP3K14 activity (AlphaScreen). It counts as biochemical. To be noted: 5 μM ATP, 1 nM NIK, average if tested more than once. An outline of the steps: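 GST-tagged NIK (1 nM) auto-phosphorylation with 5 μM ATP, 2 h at 25 °C, pH 7.5 Tris buffer, 0.7% DMSO; stopped with anti-phospho-IKK Ser176/180 antibody and read by AlphaScreen. Signal normalized to full-activity and no-enzyme/no-ATP controls; IC50 from sigmoidal fit of % inhibition vs log concentration.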
A general note: In Alpha technology, singlet oxygen from a donor bead excites a nearby acceptor bead.

Assay [2] relates to p-IKKa levels in L363 (NIK translocated multiple myeloma) cells. Put plainly: Effect of compounds on p-IKKa levels in L363 (NIK translocated multiple myeloma) cells (AlphaLISA SureFire Ultra p-IKKa Ser176/180). The following applies: average if tested more than once, read-out: Assay 2 IC50. The assay is classed as cell-based, human. An outline of the steps:
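L363 multiple myeloma cells, BAFF-stimulated overnight (250 ng/ml), then 6 h at 37 °C with compound (11-point 1:3 series, 0.3% DMSO) plus BAFF and 10 μM MG132. p-IKKa Ser176/180 read by AlphaLISA SureFire Ultra; IC50 from sigmoidal fit normalised to stimulated and unstimulated controls.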

Where [3] appears, read: Homo sapiens, L-363, p-IKKa levels in L363 cells.

As a reminder, the IC50 is the point on the concentration scale where inhibition reaches its midpoint.

Chain of Recombinant Human NF-kappaB-Inducing Kinase (NIK/MAP3K14) (Q99558 whole entry): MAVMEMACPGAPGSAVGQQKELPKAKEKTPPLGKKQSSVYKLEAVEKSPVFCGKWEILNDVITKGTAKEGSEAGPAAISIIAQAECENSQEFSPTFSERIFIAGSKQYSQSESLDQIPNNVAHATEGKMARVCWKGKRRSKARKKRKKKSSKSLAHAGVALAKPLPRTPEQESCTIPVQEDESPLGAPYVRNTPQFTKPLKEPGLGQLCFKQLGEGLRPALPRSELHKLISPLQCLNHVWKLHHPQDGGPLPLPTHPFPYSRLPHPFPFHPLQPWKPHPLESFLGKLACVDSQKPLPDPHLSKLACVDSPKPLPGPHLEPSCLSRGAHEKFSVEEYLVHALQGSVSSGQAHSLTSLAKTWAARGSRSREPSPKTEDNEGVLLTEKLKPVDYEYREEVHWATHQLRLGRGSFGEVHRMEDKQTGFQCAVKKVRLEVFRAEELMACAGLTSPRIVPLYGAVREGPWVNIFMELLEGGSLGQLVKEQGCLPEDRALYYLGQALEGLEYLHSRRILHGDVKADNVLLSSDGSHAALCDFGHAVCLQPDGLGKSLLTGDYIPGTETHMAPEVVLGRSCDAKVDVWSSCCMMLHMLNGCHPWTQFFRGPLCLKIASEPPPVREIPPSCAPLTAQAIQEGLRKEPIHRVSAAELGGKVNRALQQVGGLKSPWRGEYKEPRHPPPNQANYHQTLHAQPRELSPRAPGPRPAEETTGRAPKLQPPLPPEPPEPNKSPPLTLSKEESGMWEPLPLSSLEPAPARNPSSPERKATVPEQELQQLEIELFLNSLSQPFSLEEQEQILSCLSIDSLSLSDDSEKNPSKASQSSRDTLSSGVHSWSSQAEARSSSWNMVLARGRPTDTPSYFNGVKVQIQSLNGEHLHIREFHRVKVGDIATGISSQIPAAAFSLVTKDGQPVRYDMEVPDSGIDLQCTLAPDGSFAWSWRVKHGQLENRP

For `CN1CC[C@@](O)(c2ccnc(-c3csc(-c4ccnc(Nc5cnn(C)c5)n4)n3)c2)C1=O` (single isomer, unassigned) [Example 151], the IC50 in assay [1] and in assay [2] (setting [3]) was < 100 nM in each case.
Turning to `CN1CC[C@@](O)(c2cncc(-c3csc(-c4ccnc(Nc5cnn(C)c5)n4)n3)c2)C1=O` (single isomer, unassigned) [Example 152, (R)-3-hydroxy-1-methyl-3-(5-(2-(2-((1-methyl-1H-pyrazol-4-yl)amino)pyrimidin-4-yl)thiazol-4-yl)pyridin-3-yl)pyrrolidin-2-one or (S)-3-hydroxy-1-methyl-3-(5-(2-(2-((1-methyl-1H-pyrazol-4-yl)amino)pyrimidin-4-yl)thiazol-4-yl)pyridin-3-yl)pyrrolidin-2-one], the IC50 in assay [1] was < 100 nM; in assay [2] (setting [3]), 100 to 500 nM.
In the same order, the values of `CN1CC[C@@](O)(c2ccnc(-c3ccn(-c4ccnc(Nc5cnn6ccccc56)n4)n3)c2)C1=O` (single isomer, unassigned) [Example 153, (R)-3-hydroxy-1-methyl-3-(2-(1-(2-(pyrazolo[1,5-a]pyridin-3-ylamino)pyrimidin-4-yl)-1H-pyrazol-3-yl)pyridin-4-yl)pyrrolidin-2-one or (S)-3-hydroxy-1-methyl-3-(2-(1-(2-(pyrazolo[1,5-a]pyridin-3-ylamino)pyrimidin-4-yl)-1H-pyrazol-3-yl)pyridin-4-yl)pyrrolidin-2-one] are < 100 nM and < 100 nM.
Taken in the same sequence, the figures for `CN1CC[C@@](O)(c2ccnc(-c3ccn(-c4ccnc(Nc5cn(CC(F)F)nc5OC5CC5)n4)n3)c2)C1=O` (single isomer, unassigned) [Example 154, (R)-3-(2-(1-(2-((3-cyclopropoxy-1-(2,2-difluoroethyl)-1H-pyrazol-4-yl)amino)pyrimidin-4-yl)-1H-pyrazol-3-yl)pyridin-4-yl)-3-hydroxy-1-methylpyrrolidin-2-one or (S)-3-(2-(1-(2-((3-cyclopropoxy-1-(2,2-difluoroethyl)-1H-pyrazol-4-yl)amino)pyrimidin-4-yl)-1H-pyrazol-3-yl)pyridin-4-yl)-3-hydroxy-1-methylpyrrolidin-2-one] were < 100 nM and < 100 nM.
For `COc1nn(CC(F)F)cc1Nc1nccc(-n2ccc(-c3cc([C@]4(O)CCN(C)C4=O)ccn3)n2)n1` (single isomer, unassigned) [Example 155, (R)-3-(2-(1-(2-((1-(2,2-difluoroethyl)-3-methoxy-1H-pyrazol-4-yl)amino)pyrimidin-4-yl)-1H-pyrazol-3-yl)pyridin-4-yl)-3-hydroxy-1-methylpyrrolidin-2-one or (S)-3-(2-(1-(2-((1-(2,2-difluoroethyl)-3-methoxy-1H-pyrazol-4-yl)amino)pyrimidin-4-yl)-1H-pyrazol-3-yl)pyridin-4-yl)-3-hydroxy-1-methylpyrrolidin-2-one], the IC50 in assay [1] and in assay [2] (setting [3]) was < 100 nM each time.
On to `C[C@H](Nc1nccc(-c2nc(-c3cc([C@]4(O)CCN(C)C4=O)ccn3)cs2)n1)c1ccn(C)n1` (single isomer, unassigned) [Example 156, (R)-3-hydroxy-1-methyl-3-(2-(2-(2-(((S)-1-(1-methyl-1H-pyrazol-3-yl)ethyl)amino)pyrimidin-4-yl)thiazol-4-yl)pyridin-4-yl)pyrrolidin-2-one or (S)-3-hydroxy-1-methyl-3-(2-(2-(2-(((S)-1-(1-methyl-1H-pyrazol-3-yl)ethyl)amino)pyrimidin-4-yl)thiazol-4-yl)pyridin-4-yl)pyrrolidin-2-one], for which the values for the IC50 in assay [1] and in assay [2] (setting [3]) were < 100 nM and 100 to 500 nM, respectively.
Taken in the same sequence, the figures for `C[C@@H](Nc1nccc(-c2nc(-c3cc([C@]4(O)CCN(C)C4=O)ccn3)cs2)n1)c1ccn(C)n1` (single isomer, unassigned) [Example 157, (R)-3-hydroxy-1-methyl-3-(2-(2-(2-(((R)-1-(1-methyl-1H-pyrazol-3-yl)ethyl)amino)pyrimidin-4-yl)thiazol-4-yl)pyridin-4-yl)pyrrolidin-2-one or (S)-3-hydroxy-1-methyl-3-(2-(2-(2-(((R)-1-(1-methyl-1H-pyrazol-3-yl)ethyl)amino)pyrimidin-4-yl)thiazol-4-yl)pyridin-4-yl)pyrrolidin-2-one] were 100 to 500 nM and > 501 nM.
Taken in the same sequence, the figures for `CC(Nc1nccc(-c2nc(-c3cc([C@]4(O)CCN(C)C4=O)ccn3)cs2)n1)c1cnn(C)c1` (single isomer, unassigned) [Example 158, (R)-3-hydroxy-1-methyl-3-(2-(2-(2-(((R,S)-1-(1-methyl-1H-pyrazol-4-yl)ethyl)amino)pyrimidin-4-yl)thiazol-4-yl)pyrrolid-4-yl)pyrrolidine-2-one or (S)-3-hydroxy-1-methyl-3-(2-(2-(2-(((R,S)-1-(1-methyl-1H-pyrazol-4-yl)ethyl)amino)pyrimidin-4-yl)thiazol-4-yl)pyrrolid-4-yl)pyrrolidine-2-one] were < 100 nM and 100 to 500 nM.
Consider `CN1C[C@H](Nc2nccc(-c3csc(-c4cccc([C@]5(O)CCN(C)C5=O)c4)n3)n2)CC1=O` (single isomer, unassigned) [Example 234], for which the values for the IC50 in assay [1] and in assay [2] (setting [3]) were 100 to 500 nM and > 501 nM, respectively.
Regarding `CN1C[C@@H](Nc2nccc(-c3csc(-c4cccc([C@]5(O)CCN(C)C5=O)c4)n3)n2)CC1=O` (single isomer, unassigned) [Example 235], the IC50 was < 100 nM in assay [1] and > 501 nM in assay [2] (setting [3]).
With `C[C@@H](Nc1nccc(-c2csc(-c3cccc([C@]4(O)CCN(C)C4=O)c3)n2)n1)c1cn[nH]c1` (single isomer, unassigned) [Example 293], the IC50 was < 100 nM in assay [1] and 100 to 500 nM in assay [2] (p-IKKa levels in L363 cells).
Taken in the same sequence, the figures for `C[C@H](Nc1nccc(-c2csc(-c3cccc([C@]4(O)CCN(C)C4=O)c3)n2)n1)c1cn[nH]c1` (single isomer, unassigned) [Example 294] were < 100 nM and > 501 nM.
With `CN1CC[C@@](O)(c2cccc(-c3nc(-c4ccnc(Nc5ccn(C)n5)n4)co3)c2)C1=O` [Example 1, (R)-3-hydroxy-1-methyl-3-(3-(4-(2-((1-methyl-1H-pyrazol-3-yl)amino)pyrimidin-4-yl)oxazol-2-yl)phenyl)pyrrolidin-2-one], the results for the IC50 in assay [1] and in assay [2] (setting [3]) were < 100 nM and 100 to 500 nM, respectively.
Taken in the same sequence, the figures for `CN1CC[C@@](O)(c2cccc(-c3ccn(-c4ccnc(Nc5ccn(C)n5)n4)n3)c2)C1=O` [Example 2, (R)-3-hydroxy-1-methyl-3-(3-(1-(2-((1-methyl-1H-pyrazol-3-yl)amino)pyrimidin-4-yl)-1H-pyrazol-3-yl)phenyl)pyrrolidin-2-one] were < 100 nM and 100 to 500 nM.
In the same order, the values of `CN1CC[C@@](O)(c2cccc(-c3csc(-c4ccnc(Nc5ccn(C)n5)n4)n3)c2)C1=O` [Example 3, (R)-3-hydroxy-1-methyl-3-(3-(2-(2-((1-methyl-1H-pyrazol-3-yl)amino)pyrimidin-4-yl)thiazol-4-yl)phenyl)pyrrolidin-2-one] are < 100 nM and < 100 nM.
With `CN1CC[C@@](O)(c2cccc(-c3coc(-c4ccnc(Nc5ccn(C)n5)n4)n3)c2)C1=O` [Example 4, (R)-3-hydroxy-1-methyl-3-(3-(2-(2-((1-methyl-1H-pyrazol-3-yl)amino)pyrimidin-4-yl)oxazol-4-yl)phenyl)pyrrolidin-2-one], the IC50 is < 100 nM in assay [1] and > 501 nM in assay [2] (setting [3]).
Regarding `CN1CC[C@@](O)(c2cccc(-c3csc(-c4ccnc(Nc5ccnn5C)n4)n3)c2)C1=O` [Example 5, (R)-3-hydroxy-1-methyl-3-(3-(2-(2-((1-methyl-1H-pyrazol-5-yl)amino)pyrimidin-4-yl)thiazol-4-yl)phenyl)pyrrolidin-2-one], the IC50 in assay [1] and in assay [2] (setting [3]) was < 100 nM each time.
Regarding `CN1CC[C@@](O)(c2cccc(-c3nc(-c4ccnc(N)n4)cs3)c2)C1=O` [Example 6, (R)-3-(3-(4-(2-Aminopyrimidin-4-yl)thiazol-2-yl)phenyl)-3-hydroxy-1-methylpyrrolidin-2-one], the IC50 is 100 to 500 nM in assay [1] and > 501 nM in assay [2] (setting [3]).
Taken in the same sequence, the figures for `COc1ncccc1Nc1nccc(-c2csc(-c3cccc([C@]4(O)CCN(C)C4=O)c3)n2)n1` [Example 7, (R)-3-Hydroxy-3-(3-(4-(2-((2-methoxypyridin-3-yl)amino)pyrimidin-4-yl)thiazol-2-yl)phenyl)-1-methylpyrrolidin-2-one] were < 100 nM and 100 to 500 nM.
In the same order, the values of `Cc1ncc(C#N)cc1Nc1nccc(-c2csc(-c3cccc([C@]4(O)CCN(C)C4=O)c3)n2)n1` [Example 8, (R)-5-((4-(2-(3-(3-Hydroxy-1-methyl-2-oxopyrrolidin-3-yl)phenyl)thiazol-4-yl)pyrimidin-2-yl)amino)-6-methylnicotinonitrile] are < 100 nM and 100 to 500 nM.
Taken in the same sequence, the figures for `CN1CC[C@@](O)(c2cccc(-c3nc(-c4ccnc(Nc5cn(CC(F)F)nc5OC5CC5)n4)cs3)c2)C1=O` [Example 9, (R)-3-(3-(4-(2-((3-Cyclopropoxy-1-(2,2-difluoroethyl)-1H-pyrazol-4-yl)amino)pyrimidin-4-yl)thiazol-2-yl)phenyl)-3-hydroxy-1-methylpyrrolidin-2-one] were < 100 nM and < 100 nM.
